Assay: gradient 5% acetonitrile 3 min, to 50% in 2 min, to 85% in 15 min, held 3 min, 100 µL/min
Conditions: column: Zorbax Extend-C18 2.1 x 50 mm; eluents: water / acetonitrile, 0.1% formic acid
In short: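 Retention times of pure standards were taken from adduct peaks that were selected by computer and manually inspected. Over 3 months, mixtures of ~100 molecules were run by HPLC–quadrupole time-of-flight mass spectrometry in positive and negative ionization mode. The Zorbax Extend-C18 column (2.1 × 50 mm, 1.8 μm) ran at 100 μL/min in water and acetonitrile, each containing 0.1% formic acid, with 40 μL dead volume and 900 μL dwell volume.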

| SMILES | RP-LC retention time [s] |
| --- | --- |
| CCCCN(CCCNC(=O)c1cc(C)nn1-c1ccccc1)Cc1ccccc1 | 656 |
| CC(=O)N1c2ccc(S(=O)(=O)N3CCCC3)cc2CC1C(=O)NCCC(C)C (stereo not given) | 806 |
| O=C(Nc1ccccc1)c1nnc(CSCC(=O)N2CCN(c3ccccn3)CC2)s1 | 631 |
| CCC(=O)N1CCc2cc(CNS(=O)(=O)c3ccc(OC)c(OC)c3)ccc21 | 747 |
| CC(=O)N1CCc2ccccc2C1C(=O)NCc1cccs1 (stereo not given) | 720 |
| COc1cccc(C(=O)N2CCc3nc[nH]c3C2)c1OC | 555 |
| OCCOCCNCc1ccc(-c2ccc(Cl)cc2)o1 | 644 |
| Cc1nnc(NC(=O)CSc2nnc(-c3ccc(Cl)cc3)o2)s1 | 772 |
| CCCn1cc(C(=O)Nc2cccc(F)c2)c(S(=O)(=O)N2CCSCC2)n1 | 1070 |
| CCOC(=O)c1cnc2c(-c3ccc(Cl)cc3)c(COC)nn2c1N | 1150 |
| O=C(CCc1c(-c2cccc(Cl)c2)nc2ccccn12)N1CCN(c2ccccc2)CC1 | 718 |
| CN(C)C[C@@H]1CN(S(C)(=O)=O)C[C@H]1NC(=O)c1ccsc1 | 569 |
| COC(=O)c1ccc(C(=O)NCC2(O)CCOCC2)cc1 | 584 |
| CCN1CCC2(CC1)N=C(c1ccccc1)CC(c1cc(Cl)ccc1O)N2 (stereo not given) | 621 |
| COc1ccc(NS(=O)(=O)c2sc3ccc(Cl)cc3c2C)cc1N1CCNCC1 | 781 |
| O=C(C1CCN(S(=O)(=O)c2ccc(-c3noc(C4CC4)n3)cc2)CC1)N1CCCCCC1 | 1030 |
| Cc1ccc2c(Nc3cccc(Cl)c3)c(-c3nc(C)no3)cnc2n1 | 808 |
| CC1CCC2(CC1)NC(=O)N(CC(=O)NCc1ccc3c(c1)OCO3)C2=O (stereo not given) | 749 |
| Cc1cc(C(=O)N2CCC(c3cc(N)on3)CC2)c(C)o1 | 667 |
| Cc1ccc(C)c(-c2cc3c(=O)n(Cc4nc(-c5ccccc5)no4)ncn3n2)c1 | 1200 |
| CCCNC(=O)c1nn(-c2ccc(OC)cc2)c(OC)cc1=O | 661 |
| COc1ccc(CNc2ccc(S(=O)(=O)C(C)(C)C)nn2)cc1OC | 711 |
| CCOC(=O)c1c(C)c(C(=O)Nc2cc(Cl)ccc2OC)c(C)n1CC | 1180 |
| CCCN(C)S(=O)(=O)c1c(C)nn(-c2ccc(-c3ccccc3)nn2)c1C | 1080 |
| CN1CCC(OC2CCN(C(=O)c3ccc(F)cc3Cl)CC2)CC1 | 583 |
| COc1ccc(OC)c(-c2cn3ccn(-c4ccc(OC)c(Cl)c4)c(=O)c3n2)c1 | 885 |
| CCc1ccc(NC(=O)c2cn(CC)c3ncccc23)cc1 | 962 |
| CCCc1nc(-c2c(C)cc(C)nc2NC(=O)c2cc(C)cc(C)c2)no1 | 784 |

| SMILES | RP-LC retention time [s] |
| --- | --- |
| Cc1ccc2cc(CCC(=O)NCCN3CCCCCC3)c(=O)[nH]c2c1 | 628 |
| Cc1ccccc1OCc1nc(CCN(C)C(=O)c2ccc(Br)o2)no1 | 951 |
| COC[C@@H]1CN(Cc2cccc(OC)c2OC)C[C@H]1c1ccccn1 | 656 |
| CN(C)C(=O)[C@@]12CCCC[C@H]1N(CCc1ccccc1)C(=O)CC2 | 725 |
| O=C([C@@H]1C[C@H](F)CN1S(=O)(=O)Cc1ccccc1F)N1CCc2ccccc2C1 | 919 |
| COc1ccc(OC)c(S(=O)(=O)N2CCc3nc[nH]c3C2)c1 | 554 |
| O=C(NC1CC1)c1nc(-c2cccs2)cs1 | 835 |
| O=C1Nc2ccccc2NC12CCOCC2 | 631 |
| CCCC(=O)N1CC(c2nc(-c3ccc(F)cc3)no2)C2(CCOCC2)C1 (stereo not given) | 872 |
| CC(C)(C)n1nnnc1C1CC2(CCOCC2)C(=O)N1CCc1nc2ccccc2[nH]1 (stereo not given) | 604 |
| CCn1nccc1-c1csc(S(=O)(=O)N2CCCC2)c1 | 864 |
| CN1CCc2c([nH]c3ccccc23)C12CCN(S(=O)(=O)c1cccnc1)CC2 | 585 |
| NC(=NC1C2CC3CC(C2)CC1C3)Nc1ccc(I)cc1 (stereo not given) | 887 |
| O=C(Nc1ccc(F)cc1)Nc1nccn(-c2ccc(Br)cc2)c1=O | 985 |
| O=C(NCc1cccc(Br)c1)c1cn2nc(Cl)ccc2n1 | 867 |
| COc1ncc(C(=O)N2CCN(c3ccccc3F)CC2)cn1 | 770 |
| Cc1sc(-c2cc(C(F)(F)F)on2)cc1S(=O)(=O)NCc1ccccc1 | 1110 |
| CCCNC(=O)c1cc2sccc2n1C | 816 |
| Cc1c(C2CCN(C(=O)c3ccc4c(c3)OCO4)CC2)noc1N | 663 |
| c1ccc(-c2nc(-c3cn(-c4ccccc4)nn3)no2)cc1 | 1020 |
| COc1ccc(CN2C[C@@H]3C(=O)N(CCc4ccccc4)C(=O)[C@@H]3C2)c(OC)c1 | 728 |
| O=C(NC1CC1)c1ccc2c(c1)CCN2C(=O)C1CCCC1 | 948 |
| CC(C)OCCCNC(=O)COc1ccccc1-c1nnc(-c2ccccc2)o1 | 631 |
| CCCn1cnc2cc(CNC(=O)c3cc4ccccc4[nH]3)ccc21 | 659 |
| O=C(COc1ccccc1)N1CCN(c2nc(CN3CCOCC3)cs2)CC1 | 615 |
| O=C(C(c1ccccc1)n1cccc1)N1CCCC1 (stereo not given) | 782 |
| O=S(=O)(c1cccn2c(SCc3c(F)cccc3Cl)nnc12)N1CCCC1 | 855 |

Continued, values first:

| RP-LC retention time [s] | SMILES |
| --- | --- |
| 925 | Cc1ccc(S(=O)(=O)N2CCC(n3cnc4ccc(C)cc4c3=O)CC2)cc1 |
| 722 | CCCn1cnc2cc(CNC(=O)c3ccc(-n4c(C)ccc4C)cc3)ccc21 |
| 751 | COc1cc(NC(=O)NCCc2nc3cccnc3n2C2CCCCC2)cc(OC)c1 |
| 656 | Cc1cc(C(=O)N2CCCn3cc(-c4ccccc4F)nc32)nn1C |
| 717 | CCC(=O)Nc1ccc(-n2cnc(C(=O)N3CCN(c4cccc(OC)c4)CC3)c2)nc1 |
| 824 | Cc1ccc(C2c3cc(OCC(=O)N4CCCC4)ccc3CCN2C(=O)C2CC2)cc1 (stereo not given) |
| 935 | CCOc1ccc(NC(=O)Nc2nccn(-c3ccc(OC)cc3)c2=O)cc1 |
| 772 | Cc1ccc(C)c(Nc2nc(-c3ccncc3)nc3ccccc23)c1 |
| 812 | COc1cc(C(=O)N2CCC3(CC2)N=C(c2ccc(Cl)cc2)C(=O)N3)cc(OC)c1OC |
| 991 | COc1ccc(-c2c(C(=O)Nc3ccccc3OC)nc3ccccn23)cc1 |
| 736 | COc1ccc(-c2c(C)noc2NC(C)=O)cc1S(=O)(=O)Nc1ccc(F)cc1 |
| 850 | Cc1ccc(-c2nnc(Cc3nc(-c4ccncc4)no3)o2)cc1C |
| 885 | COc1ccc2nc(NC(=O)Cc3csc4nc(-c5ccc(C)c(C)c5)cn34)sc2c1 |
| 720 | Cc1ccccc1NC(=O)N1CCCN(c2ccc(=O)n(-c3ccccc3)n2)CC1 |
| 773 | COCc1nc(-c2ccc(OC3CN(C(=O)NC(C)C)C3)cc2)no1 |
| 876 | CCN1C(=O)C(C)(C(=O)Nc2ccccc2C)Oc2cccnc21 (stereo not given) |
| 858 | CC(C)CCNC(=O)c1ccc2c(=O)n(-c3ccccc3)c(N3CCCC3)nc2c1 |
| 844 | COc1ccc(S(=O)(=O)N2CC3CN(C(=O)C(C)Oc4ccccc4)CC(C2)O3)cc1 (stereo not given) |

| RP-LC retention time [s] | SMILES |
| --- | --- |
| 871 | O=C(NCc1cccc(C(F)(F)F)c1)C1CCN(c2ccc(SCc3ccccc3)nn2)CC1 |
| 1050 | CCc1ccccc1NC(=O)CSc1nnc2c3cc(-c4ccc(C)c(C)c4)nn3ccn12 |
| 984 | CCOc1ccc2ncc(C#N)c(N3CCC(C(=O)Nc4ccccc4OCC)CC3)c2c1 |
| 611 | Cc1cc(C)c(S(=O)(=O)Nc2ccc3nc(N4CCN(C)CC4)cc(C(=O)O)c3c2)cc1C |
| 1090 | Cc1nc2nc(-c3ccc(C(C)(C)C)cc3)nn2c(C)c1CC(=O)N1CCC(C)CC1 |
| 913 | Cc1ccc(NC(=O)Cn2c(=O)nc(N3CCC(C)CC3)c3ccccc32)c(C)c1 |
| 853 | Cc1ccccc1Oc1nccn2c(=O)n(CC(=O)Nc3ccccc3F)nc12 |
| 1050 | CCn1cc2c3c(cccc31)CN(C(=O)Nc1cccc(C)c1)CC2 |
| 736 | COc1cccc(CNC(=O)N2CCC(CC(=O)NCc3ccccc3)CC2)c1 |
| 860 | CCCCc1ccc(NC(=O)CSc2ccc(N3CCCC(C(=O)NCCC)C3)nn2)cc1 (stereo not given) |
| 582 | O=C(NCc1cccc(F)c1)c1ccc2c(c1)ncn2CCN1CCCC1 |
| 998 | COC(=O)c1ccc2c(=O)n(-c3cccc(Cl)c3)c(N3CCOCC3)nc2c1 |
| 783 | COc1ccc(S(=O)(=O)N2CCC(n3cnnc3-c3ccccc3)CC2)cc1 |
| 1150 | Cc1ccc(Oc2nccnc2N2CCCC(C(=O)NC(C)c3ccc(C)c(C)c3)C2)cc1 (stereo not given) |
| 1020 | COc1ccc(-c2ncc3c(n2)CCN(C(=O)Nc2ccc(C)cc2Cl)C3)cc1 |
| 864 | Cc1csc(-c2ccc(N3CCN(C(=O)c4nn(C)c5ccccc45)CC3)nc2)n1 |
| 882 | Cn1nccc1C(=O)Nc1c(-c2cccc(F)c2)nc2sc(N3CCCCC3)nn12 |

Source: the METLIN SMRT retention time set (Domingo-Almenara et al. 2019)
